The results in this text go back to publication PMC8191290, “Substrate specificities and reaction kinetics of the yeast oligosaccharyltransferase isoforms” (The Journal of Biological Chemistry, 2021).

Broadly, the Km is the substrate concentration at which the rate is half of its maximum.

In this test the target is T1, OST3 complex (Saccharomyces cerevisiae, UniProt P39007).
T1 construct: were purified separately from strains expressing only one type of complex; made in house; host or cells: Saccharomyces cerevisiae, BY4742-derived strain ost6::LEU2MX6 OST4-1D4::kanMX6 YEp352-OST3
Kind of test: In vitro glycosylation assay, kinetic parameters for synthetic LLOs, OST3 complex. The format is biochemical. From the text: Synthetic LLO substrates all have two GlcNAcs as the sugar moiety, followed by pyrophosphate and lipid moieties (−R) of variable stereochemistry and length, denoted by the carbon chain length. C10, (S)-citronellyl; C15, farnesyl; C20, (S)-citronellylneryl; C25, (S)-citronellylfarnesyl; C90, represents the natural yeast dolichol lipid tail structure where n = 15. Figure modified from Ramirez et al. 2017 ([42]). B, quantification of kinetic parameters for the synthetic LLOs. Reactions were performed with 0.1 μM purified OST3 complex, 25 μM peptide TAMRA-YANATS, and varying concentrations of the different synthetic LLOs. Glycopeptide product was measured by UPLC and turnover rates were determined from the linear initial phase of the reaction. The mean of three reactions is shown and the data were fitted by nonlinear regression according to the Michaelis–Menten formula (R^2 = 0.9842 (LLO C15), 0.9685 (LLO C20), 0.9261 (LLO C25)) using Prism. Error bars indicate standard deviations from the mean (n = 3).
Concentrations of reactive LLO analogs were determined by in vitro glycosylation (see below) by titrating varying amounts of LLO against a known amount of fluorescently labeled peptide. Concentrations of nonreactive LLO analogs were determined by in vitro glycosylation by titrating varying amounts of nonreactive LLO while using known amounts of both fluorescently labeled peptide and active LLO analog.
Reactions were performed in a total volume of 10 μl containing the specified amount of TAMRA-labeled peptide, synthetic LLO analog, 10 mM MnCl2, and purified OST after size-exclusion chromatography in purification buffer (50 mM Hepes, pH 7.5, 150 mM NaCl, 1 mM MgCl2, 1 mM MnCl2, 10% (v/v) glycerol, 0.03% (w/v) DDM, and 0.006% (w/v) CHS). The concentration of OST was calculated using the molecular weight of 280 kDa. The reaction mixture was preincubated at 30 °C for 5 min before adding the peptide to start the reaction that proceeded at 30 °C. Time points were taken such that the reaction was in the linear phase. […]
Samples were analyzed by reverse-phase chromatography using a UPLC Dionex UltiMate 3000 with an Accucore 150-C18 100 × 2.1 mm 2.6 μm column (Thermo Fisher Scientific). One microliter sample (2 pmol of peptide) was injected and measured by isocratic elution using a certain proportion of ACN (15% ACN for peptide TAMRA-DANYTK; 20% ACN for peptide TAMRA-YANATS) in 10 mM KPO4, pH 8.0 buffer so that the glycopeptide and peptide are fully separated and elute within 3 min at a constant flow rate of 0.7 ml/min, with a column temperature of 45 °C. The peptide and glycopeptide were detected through TAMRA fluorescence (excitation wavelength: 546 nm; emission wavelength: 579 nm).
The UPLC profiles were analyzed by integrating the peaks corresponding to the glycopeptide and peptide using Chromeleon 7 (Dionex) and calculating the amount of glycopeptide formed using the following equation, as previously described ([43]): [GP]=PeakareaGP/PeakareaP+PeakareaGP×[P]
[GP] is the concentration of glycopeptide, Peak areaGP/P is the area under the curves measured for the glycopeptide or peptide, respectively, and [P] is the concentration of peptide at the start of the reaction. […] Unless specified otherwise, turnover rates were determined from the initial rates of reaction by taking into account the enzyme concentration in the reaction. […]

Consider `CC(=O)N[C@H]1[C@@H](OP(=O)(O)OP(=O)(O)OC/C=C(\C)CC/C=C(\C)CCC=C(C)C)O[C@H](CO)[C@@H](O[C@@H]2O[C@H](CO)[C@@H](O)[C@H](O)[C@H]2NC(C)=O)[C@@H]1O` [LLO C15], for which the kcat/KM (0.1 μM purified OST3 complex, 25 μM TAMRA-YANATS) was 0.02 min^-1 μM^−s1. Besides, the “kcat (apparent)” value (0.1 μM purified OST3 complex, 25 μM TAMRA-YANATS, varying LLO (C15 5–200, C20 5–150, C25 2–50 μM), 30 °C, n = 3) stood at 0.0283 ± 0.0017 s⁻¹. For the same molecule, the Km (0.1 μM purified OST3 complex, 25 μM TAMRA-YANATS, varying LLO (C15 5–200, C20 5–150, C25 2–50 μM), 30 °C, n = 3, read-out: KM (apparent)) stood at 67.9 ± 6.7 µM. The “apparent LLO affinity, in words” value (OST3 complex, from apparent KM) is reported as “bound much less efficiently”.
